Experimental data: patent US11702422B2, “Imidazopyridazines as modulators of IL-17” (Janssen Pharmaceutica NV, priority 2020, dated 2023)
pIC50: −log10 of the molar value.

What was measured:
[1] = target: IL-17A(FLAG-Tagged): IL-17RA(His-Tagged) (Homo sapiens, UniProt Q16552, K93Q); test: IL-17A(FLAG-Tagged): IL-17RA(His-Tagged) Binding Disruption Eu-HTRF Assay; details: IL-17A/IL-17RA binding disruption, simple average if tested more than once
From the text: IL-17A(FLAG-Tagged): IL-17RA(His-Tagged) Binding Disruption Eu-HTRF Assay
An antibody directed against the FLAG tag of IL-17A (SEQ ID NO:1) is labeled with the HTRF donor chromophore (Europium-cryptate). IL-17A is present as a dimer that is “locked into” this quaternary structure due to the formation of loop-spanning […] disulfide bridges. The construct of IL-17RA used in the assay excludes the […] portion of the receptor and is fused to a C-terminal 10×His tag (SEQ ID NO:2). An antibody directed against the His tag of the IL-17RA chimera is labeled with the HTRF acceptor chromophore (“D2”). The fluorescence-resonance energy transfer (FRET) depends on the vicinity of the donor chromophore to the acceptor, and interruption of the binding between the IL-17A and IL-17RA causes the reduction/loss of FRET. Therefore, this assay allows to evaluate the compound effect on the binding IL-17A and IL-17RA by monitoring the fluorescence intensity of donor vs acceptor. The assay is run as described below.
40 nl of 2-fold serial diluted compound solution for total 22 dilution points is added into each well of a 1536-well, white, low-volume, non-binding plate (Greiner #782904), then 2 μl of FLAG tagged IL-17A at 2× final concentration (2.5 nM) in solution of PBS+0.01% Triton-X100 is added to each well. The assay plate is briefly centrifuged then incubated for 1 h at rt. A mixed solution is prepared containing 2×5 nM 10HIS×IL-17RA, 2×2.5 nM Eu-anti-FLAG (CISBIO), 2×5 nM D2-anti-HIS (CISBIO) in PBS+0.01% Triton-X100+200 mM Potassium Fluoride (Sigma 60238) and 2 μl of mix is added to each well of the assay plate. The plate is briefly centrifuged then incubated for 2 h at rt. The HTRF intensities at the wavelength of donor (620 nm) and acceptor (665 nm) are measured using BMG Pherastar. The ratio between intensities at two wavelengths is calculated and plotted against the compound concentration and the data is fitted to a one-site competition model to yield IC50 of the compound.

[2] = tested on: IL-17A-induced G-CSF production in human normal keratinocyte (NHK); test: NHK Assay: IL-17A-induced G-CSF production in human normal keratinocytes; format: cell-based; details: 24 h, adult normal human keratinocytes, IL-17A 5 ng/mL, simple average if tested more than once
Protocol: IL-17A acts directly on keratinocytes through binding to dimeric receptor IL-17RA/RC and drives the production of a number of inflammatory mediators known to be elevated in psoriasis lesional tissue. IL-17A small molecule inhibitors that block the IL-17A to interact with IL-17R would inhibit the IL-17A signaling in its targeted cells such as keratinocytes. The compound functional activity is evaluated for its impact on IL-17A-induced G-CSF production in human normal keratinocyte (NHK).
Adult normal human keratinocytes are cultured in keratinocyte growth medium (Lonza) in a flask till reaching ˜ 90% confluence, then cells are transferred to a 384-well plate at density of 3000-4000 cell/well. Recombinant human IL-17A (Gibco PHC9174) is pre-incubated with titrated compound or DMSO for 1 h at rt then added to the cell culture plate. The final concentration of IL-17A is 5 ng/mL and DMSO is 0.2%, in the culture containing 5% FBS. Cells are cultured/treated for 24 h at 37° C. Supernatants are collected and G-CSF production is measured through HTRF technology using Human G-CSF Kit (CisBio). G-CSF concentration was extrapolated from the standard curve and IC50 is determined using GraphPad Prism. Cell viability is also evaluated using CellTiter-Glo kit (Promega) and effect of compound on cell viability is compared to DMSO control.

UniProt Q16552, sequence (Q16552 with tags, fused parts or gaps K93Q): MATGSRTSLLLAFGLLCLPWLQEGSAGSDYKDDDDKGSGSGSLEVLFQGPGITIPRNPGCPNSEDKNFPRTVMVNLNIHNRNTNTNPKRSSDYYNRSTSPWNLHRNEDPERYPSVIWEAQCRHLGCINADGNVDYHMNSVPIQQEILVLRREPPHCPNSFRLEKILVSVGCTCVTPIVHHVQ

Structure (SMILES) | pIC50 [1] | pIC50 ([2]; Homo sapiens, Keratinocyte) | pIC50 [2]
O=C(CCC(F)(F)F)N[C@@H](c1cnn2cc([C@@H](NC(=O)c3cc(F)cc(OC(F)F)c3)C3CCC(F)(F)CC3)nc2c1)C1CC1 [Example 165, N—((S)-(7-((R)-Cyclopropyl(4,4,4-trifluorobutanamido)methyl)imidazo[1,2-b]pyridazin-2-yl)(4,4-difluorocyclohexyl)methyl)-3-(difluoromethoxy)-5-fluorobenzamide] | 7.28 | 6.89 | 
O=C(CCC(F)(F)F)NC(c1cnn2cc([C@@H](NC(=O)c3nnsc3C3CC3)C3CCC(F)(F)CC3)nc2c1)C1CC1 (single isomer, unassigned) [Example 466, 5-Cyclopropyl-N—((S)-(7-((R*)-cyclopropyl(4,4,4-trifluorobutanamido)methyl)imidazo[1,2-b]pyridazin-2-yl)(4,4-difluorocyclohexyl)methyl)-1,2,3-thiadiazole-4-carboxamide] | 7.47 | 6.68 | 
CC(C)n1nccc1C(=O)N[C@H](c1nc2cc([C@H](NC(=O)CCC(F)(F)F)C3CC3)cnn2c1F)C1CCC(F)(F)CC1 [Example 118, N—((S)-(7-((R)-Cyclopropyl(4,4,4-trifluorobutanamido)methyl)-3-fluoroimidazo[1,2-b]pyridazin-2-yl)(4,4-difluorocyclohexyl)methyl)-1-isopropyl-1H-pyrazole-5-carboxamide] | 6.60 | 6.43 | 
CC(C)n1nccc1C(=O)N[C@@H](COC(C)(C)C)c1cn2ncc(C(NC(=O)CCC(F)(F)F)C3CC3)cc2n1 (single isomer, unassigned) [Example 317, N—((R)-2-(tert-Butoxy)-1-(7-((S*)-cyclopropyl(4,4,4-trifluorobutanamido)methyl)imidazo[1,2-b]pyridazin-2-yl)ethyl)-1-isopropyl-1H-pyrazole-5-carboxamide] | 5.00 |  | < 4.70
CCOCC(NC(=O)CC1CC(F)(F)C1)c1cnn2cc([C@@H](NC(=O)c3ccnn3C(C)C)C3CCC(F)(F)CC3)nc2c1 (single isomer, unassigned) [Example 528, N—((S)-(7-((R*)-1-(2-(3,3-Difluorocyclobutyl)acetamido)-2-ethoxyethyl)imidazo[1,2-b]pyridazin-2-yl)(4,4-difluorocyclohexyl)methyl)-1-isopropyl-1H-pyrazole-5-carboxamide] | 6.05 |  | 5.62
CC(C)(O)c1nonc1C(=O)N[C@H](c1cn2ncc([C@H](NC(=O)CCC(F)(F)F)C3CC3)cc2n1)C1CCC(F)(F)CC1 [Example 371, N—((S)-(7-((R)-Cyclopropyl(4,4,4-trifluorobutanamido)methyl)imidazo[1,2-b]pyridazin-2-yl)(4,4-difluorocyclohexyl)methyl)-4-(2-hydroxypropan-2-yl)-1,2,5-oxadiazole-3-carboxamide] | 6.85 | 6.35 | 
CCc1cccc(C(=O)N[C@H](c2cn3ncc([C@H](NC(=O)CCC(F)(F)F)C4CC4)cc3n2)C2CCC(F)(F)CC2)n1 [Example 228, N—((S)-(7-((R)-Cyclopropyl(4,4,4-trifluorobutanamido)methyl)imidazo[1,2-b]pyridazin-2-yl)(4,4-difluorocyclohexyl)methyl)-6-ethylpicolinamide] | 6.00 | < 4.70 | 
CCOCC(NC(=O)CC1CC(F)(F)C1)c1cnn2cc([C@@H](NC(=O)c3nonc3C3CC3)C3CCC(F)(F)CC3)nc2c1 (single isomer, unassigned) [Example 526, 4-Cyclopropyl-N—((S)-(7-((S*)-1-(2-(3,3-difluorocyclobutyl)acetamido)-2-ethoxyethyl)imidazo[1,2-b]pyridazin-2-yl)(4,4-difluorocyclohexyl)methyl)-1,2,5-oxadiazole-3-carboxamide] | 6.49 |  | 5.92
O=C(CC12CC(F)(C1)C2)N[C@@H](c1cnn2cc([C@@H](NC(=O)c3conc3OCC(F)F)C3CCC(F)(F)CC3)nc2c1)C1CC1 [Example 295, N—((S)-(7-((R)-Cyclopropyl(2-(3-fluorobicyclo[1.1.1]pentan-1-yl)acetamido)methyl)imidazo[1,2-b]pyridazin-2-yl)(4,4-difluorocyclohexyl)methyl)-3-(2,2-difluoroethoxy)isoxazole-4-carboxamide] | 6.82 | 6.15 | 
CC(C)n1nccc1C(=O)N[C@H](c1cn2ncc([C@H](NC(=O)CO[C@@H](C)C(F)(F)F)C3CC3)cc2n1)C1CCC(F)(F)CC1 (single isomer, unassigned) [Example 310] | 6.77 | 6.66 | 
CC(C)n1cncc1C(=O)N[C@H](c1cn2ncc([C@H](NC(=O)CCC(F)(F)F)C3CC3)cc2n1)C1CCC(F)(F)CC1 [Example 85, N—((S)-(7-((R)-Cyclopropyl(4,4,4-trifluorobutanamido)methyl)imidazo[1,2-b]pyridazin-2-yl)(4,4-difluorocyclohexyl)methyl)-1-isopropyl-1H-imidazole-5-carboxamide] | 6.60 | 6.47 | 
CC(C)n1nccc1C(=O)N[C@H](c1cn2ncc([C@H](NC(=O)C[C@@H]3CC3(F)F)C3CC3)cc2n1)C1CCC(F)(F)CC1 (single isomer, unassigned) [Example 141] | 6.89 | 6.70 | 
N#CC1(C(NC(=O)CC2CC(F)(F)C2)c2cnn3cc([C@@H](NC(=O)c4nonc4OCC(F)F)C4CCC(F)(F)CC4)nc3c2)CC1 (single isomer, unassigned) [Example 430, N—((S)-(7-((R*)-(1-Cyanocyclopropyl)(2-(3,3-difluorocyclobutyl)acetamido)methyl)imidazo[1,2-b]pyridazin-2-yl)(4,4-difluorocyclohexyl)methyl)-4-(2,2-difluoroethoxy)-1,2,5-oxadiazole-3-carboxamide] | 5.80 |  | 4.92
CC(C)n1nccc1C(=O)N[C@H](c1cn2ncc([C@@H](NC(=O)C[C@H]3CC3(F)F)C3CC3)cc2n1)C1CCC(F)(F)CC1 (single isomer, unassigned) [Example 138] | 6.11 | 5.89 | 
CC(C)n1nccc1C(=O)N[C@@H](COC(C)(C)C(F)(F)F)c1cn2ncc([C@H](NC(=O)CC3CC(F)(F)C3)C3CC3)cc2n1 [Example 320, N—((R)-1-(7-((R)-Cyclopropyl(2-(3,3-difluorocyclobutyl)acetamido)methyl)imidazo[1,2-b]pyridazin-2-yl)-2-((1,1,1-trifluoro-2-methylpropan-2-yl)oxy)ethyl)-1-isopropyl-1H-pyrazole-5-carboxamide] | 7.13 | 7.21 | 
CC(CC(=O)N[C@@H](c1cnn2cc([C@@H](NC(=O)c3conc3OCC(F)F)C3CCC(F)(F)CC3)nc2c1)C1CC1)C(F)(F)F (single isomer, unassigned) [Example 298, N—((S)-(7-((R)-Cyclopropyl((R*)-4,4,4-trifluoro-3-methylbutanamido)methyl)imidazo[1,2-b]pyridazin-2-yl)(4,4-difluorocyclohexyl)methyl)-3-(2,2-difluoroethoxy)isoxazole-4-carboxamide] | 6.60 | 6.21 | 
N#CC1([C@@H](NC(=O)C[C@H]2CC2(F)F)c2cnn3cc([C@@H](NC(=O)c4nonc4C4CC4)C4CCC(F)(F)CC4)nc3c2)CCC1 (relative stereo) [Example 449, N—((S)-(7-((S*)-(1-Cyanocyclobutyl)(2-((S*)-2,2-difluorocyclopropyl)acetamido)methyl)imidazo[1,2-b]pyridazin-2-yl)(4,4-difluorocyclohexyl)methyl)-4-cyclopropyl-1,2,5-oxadiazole-3-carboxamide] | 7.55 | 8.33 | 
